According to patent US20260125346A1, “Isoquinolinone Derivatives and 4H-Quinolizinone Derivatives and Pharmaceutical Compositions Thereof for the Treatment of Disease” (BeOne Medicines I GmbH, priority 2023, published 2026):

Legend:
[1] = biological target: PI3Kα (p110/p85) kinase (wild type, "WT") (Homo sapiens, UniProt P42336); experiment: PI3Kα (p110/p85) kinase ADP-Glo Assay; format: biochemical; conditions: 25 uM ATP
Method in brief: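 Wild-type PI3Kα p110/p85 preincubated 30 min at RT with PI(4,5)P2:PS substrate ([…]) and compound ([…]) in HEPES pH7.5 buffer with MgCl2, DTT and BSA; reaction started with 25 µM ATP for 120 min at RT. ADP measured by ADP-Glo luminescence; IC50 from four-parameter logistic fit.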

[2] = system: PI3Kα H1047R mutated cell line T-47D cells; experiment: Cell Proliferation Assay (CellTiter-Glo), T-47D; format: cell-based; conditions: for IC50: Homo sapiens, T47D, 72 h, T-47D, 3 days treatment; for Selectivity: SK-BR-3/T-47D (cell proliferation): cell proliferation IC50 ratio
Method in brief: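 T-47D cells seeded overnight at 3×10^3/well, then exposed 3 days to 9-point 1:3 dilutions, final […] to 1 nM in 0.1% DMSO. CellTiter-Glo luminescence; relative IC50 from percent inhibition versus medium-only and 0.1% DMSO controls, 4-parameter logistic fit.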

[3] = system: PI3Kα H1047R mutated cell line T-47D; experiment: Phospho-AKT (Ser473) Inhibition Assay (HTRF), T-47D; format: cell-based; conditions: for IC50: Homo sapiens, T47D, T-47D, 1 hour treatment, read-out: p-AKT Inhibition assay (S473) IC50 T-47D; for Selectivity: SK-BR-3/T-47D (p-AKT): p-AKT (S473) IC50 ratio
Method in brief: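 Cells seeded overnight in insulin-supplemented MEM, then treated 1 h with 11-point 1:3 compound dilutions (10 μM to 0.1 nM final, 0.1% DMSO). Lysates assayed for phospho-AKT Ser473 by HTRF; IC50 from 4-parameter logistic fit, normalised to DMSO (max) and 10 μM GDC0077 (min).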

Sequence of PI3Kα (p110/p85) kinase (wild type, "WT") (P42336 whole entry): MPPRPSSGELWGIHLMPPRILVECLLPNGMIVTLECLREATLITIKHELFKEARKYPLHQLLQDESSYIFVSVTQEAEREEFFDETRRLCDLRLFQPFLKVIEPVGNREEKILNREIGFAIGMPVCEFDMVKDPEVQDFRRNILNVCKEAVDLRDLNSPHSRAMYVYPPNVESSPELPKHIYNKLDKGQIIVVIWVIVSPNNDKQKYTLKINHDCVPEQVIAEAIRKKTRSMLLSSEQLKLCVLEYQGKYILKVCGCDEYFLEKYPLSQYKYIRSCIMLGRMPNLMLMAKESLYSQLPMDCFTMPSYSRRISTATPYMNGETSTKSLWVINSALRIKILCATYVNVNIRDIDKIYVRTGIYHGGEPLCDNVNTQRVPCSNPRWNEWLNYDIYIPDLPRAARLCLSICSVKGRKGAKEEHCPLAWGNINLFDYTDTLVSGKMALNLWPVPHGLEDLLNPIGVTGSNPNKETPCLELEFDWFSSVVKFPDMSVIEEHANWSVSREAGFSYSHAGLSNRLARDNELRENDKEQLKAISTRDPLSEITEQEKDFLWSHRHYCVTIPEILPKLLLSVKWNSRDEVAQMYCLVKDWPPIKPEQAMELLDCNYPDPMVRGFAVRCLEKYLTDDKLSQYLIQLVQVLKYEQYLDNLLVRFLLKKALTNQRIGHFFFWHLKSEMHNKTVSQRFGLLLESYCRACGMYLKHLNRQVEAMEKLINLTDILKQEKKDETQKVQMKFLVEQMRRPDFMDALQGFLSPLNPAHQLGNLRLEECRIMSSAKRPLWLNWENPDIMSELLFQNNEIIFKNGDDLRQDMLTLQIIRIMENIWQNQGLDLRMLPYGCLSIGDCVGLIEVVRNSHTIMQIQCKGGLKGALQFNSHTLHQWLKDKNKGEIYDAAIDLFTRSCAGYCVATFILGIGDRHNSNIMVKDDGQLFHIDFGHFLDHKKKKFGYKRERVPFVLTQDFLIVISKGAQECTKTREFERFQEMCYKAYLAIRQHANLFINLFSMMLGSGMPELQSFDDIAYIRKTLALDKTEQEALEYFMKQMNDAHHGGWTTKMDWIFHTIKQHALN
Sequence of PI3Kα (p110/p85) kinase (wild type, "WT") (P27986 whole entry partner): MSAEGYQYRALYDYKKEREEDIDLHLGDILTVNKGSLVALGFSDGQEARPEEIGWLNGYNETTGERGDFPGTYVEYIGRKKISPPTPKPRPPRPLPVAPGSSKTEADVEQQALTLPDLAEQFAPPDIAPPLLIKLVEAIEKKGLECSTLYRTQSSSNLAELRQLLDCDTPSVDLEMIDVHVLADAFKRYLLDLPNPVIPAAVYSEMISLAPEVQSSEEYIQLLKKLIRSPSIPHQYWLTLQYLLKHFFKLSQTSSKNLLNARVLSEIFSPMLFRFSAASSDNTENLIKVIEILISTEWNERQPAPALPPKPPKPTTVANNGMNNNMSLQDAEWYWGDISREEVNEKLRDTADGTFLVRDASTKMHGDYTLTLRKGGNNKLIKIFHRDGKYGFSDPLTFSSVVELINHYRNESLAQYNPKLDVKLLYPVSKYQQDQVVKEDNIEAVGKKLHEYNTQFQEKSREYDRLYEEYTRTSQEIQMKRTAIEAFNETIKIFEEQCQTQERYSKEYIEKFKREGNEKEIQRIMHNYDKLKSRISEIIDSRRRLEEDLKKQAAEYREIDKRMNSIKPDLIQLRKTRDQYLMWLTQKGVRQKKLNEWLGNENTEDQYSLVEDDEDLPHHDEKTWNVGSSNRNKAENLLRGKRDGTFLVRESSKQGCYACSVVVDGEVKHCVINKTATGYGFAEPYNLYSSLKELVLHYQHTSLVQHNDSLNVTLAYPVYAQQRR

| Compound | IC50 [1] [µM] | IC50 [2] [µM] | IC50 [3] [µM] | Selectivity: SK-BR-3/T-47D (p-AKT) [3] | Selectivity: SK-BR-3/T-47D (cell proliferation) [2] |
| --- | --- | --- | --- | --- | --- |
| Cc1cc(C(C)Nc2ccccc2C(=O)O)c2cc(C#Cc3cnn(-c4ccccc4)c3)n(C)c(=O)c2c1 (centres unmarked) [Example 94, 2-((1-(2,7-dimethyl-1-oxo-3-((1-phenyl-1H-pyrazol-4-yl)ethynyl)-1,2-dihydroisoquinolin-5-yl)ethyl)amino)benzoic acid] | > 100 | > 10 | 3.28 | >3.05 |  |
| Cc1cc(C(C)Nc2ccccc2C(=O)O)c2cc(-c3ccc(F)cc3)n(C3CCOC3)c(=O)c2c1 (centres unmarked) [Example 69, 2-((1-(3-(4-fluorophenyl)-7-methyl-1-oxo-2-(tetrahydrofuran-3-yl)-1,2-dihydroisoquinolin-5-yl)ethyl)amino)benzoic acid] | 18.8 | 1.69 | 0.103 | >97 | >5.9 |
| Cc1cc(C(C)Nc2ccccc2C(=O)O)c2cc(-c3cccnc3)n(C)c(=O)c2c1 (centres unmarked) [Example 37, 2-((1-(2,7-dimethyl-1-oxo-3-(pyridin-3-yl)-1,2-dihydroisoquinolin-5-yl)ethyl)amino)benzoic acid] | 12.5 | 0.172 | 0.382 | >26 | >58.3 |
| Cc1cc(C(C)Nc2ccccc2C(=O)O)c2cc(C#Cc3ccn(C)n3)n(C)c(=O)c2c1 (centres unmarked) [Example 88, 2-((1-(2,7-dimethyl-3-((1-methyl-1H-pyrazol-3-yl)ethynyl)-1-oxo-1,2-dihydroisoquinolin-5-yl)ethyl)amino)benzoic acid] | 1.75 | 0.695 | 0.0685 | 28.3 | >14 |
| Cc1cc(C(C)Nc2cc3ccsc3cc2C(=O)O)c2cc(-c3ccccc3)n(C)c(=O)c2c1 (centres unmarked) [Example 47, 5-((1-(2,7-dimethyl-1-oxo-3-phenyl-1,2-dihydroisoquinolin-5-yl)ethyl)amino)benzo[b]thiophene-6-carboxylic acid] | 14.3 | > 10 | 0.0572 | >175 |  |
